Consider 24 compounds from patent US7273856B2, “Linear basic compounds having NK-2 antagonist activity and formulations thereof” (Menarini Ricerche S.P.A., priority 2001, dated 2007).

Where a name gives a salt, the structure may show the parent alone.

This assay has as its target T1, human NK-2 receptor (Homo sapiens, UniProt P21452).
T1 construct: expressed in transfected cells; host or cells: CHO (Chinese hamster ovary) cells, membranes
T1 sequence (P21452 1-398): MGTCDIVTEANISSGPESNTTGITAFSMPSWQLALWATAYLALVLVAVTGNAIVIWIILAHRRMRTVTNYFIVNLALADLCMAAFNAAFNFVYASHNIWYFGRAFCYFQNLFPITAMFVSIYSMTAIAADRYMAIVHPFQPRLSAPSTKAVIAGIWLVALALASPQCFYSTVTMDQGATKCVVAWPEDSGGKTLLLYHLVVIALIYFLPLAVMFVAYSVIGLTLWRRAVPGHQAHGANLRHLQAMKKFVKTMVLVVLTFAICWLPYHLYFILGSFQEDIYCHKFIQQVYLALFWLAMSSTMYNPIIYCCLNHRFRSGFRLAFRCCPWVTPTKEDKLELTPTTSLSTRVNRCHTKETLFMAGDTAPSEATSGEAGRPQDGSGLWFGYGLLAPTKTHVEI
The experiment in a line: binding test, affinity for the human NK-2 receptor, competition with [125I]NKA on transfected CHO cell membranes. As to conditions: CHO cell membranes transfected with NK-2 receptor of human ileum; [125I]NKA 100 pM; 30 min, 20° C. The protocol:
The evaluation of the antagonist activity on NK-2 receptors has been assessed by binding and functional tests according to that already described in literature in relation to NK-2 antagonists.
The test substances have been tested within a concentration range from 0.01 nM to 10 nM. At the end of the incubation time (30 min, 20° C.) the samples have been filtered and radioactivity has been determined using a gamma-counter.
`O=C(NC1(C(=O)N[C@H](Cc2ccccc2)C(=O)NCC2CCN(CC3CCOCC3)CC2)CCCC1)c1cc2cc(F)ccc2o1` [Example 121, 5-Fluoro-benzofuran-2-carboxylic acid [1-(2-phenyl-1R-{[1-(tetrahydro-pyran-4-ylmethyl)-piperidin-4-ylmethyl]-carbamoyl}-ethylcarbamoyl)-cyclopentyl]-amide] showed a Ki of 0.501 nM.
`NCCCCCNC(=O)C1CCCC(NC(=O)[C@@H](Cc2ccccc2)NC(=O)C2(NC(=O)c3cc4ccccc4s3)CCCCC2)C1.O=C(O)C(F)(F)F` (stereo in doubt) [Example 22, N^γ{N^α[N^α(benzo[b]thiophen-2-ylcarbonyl)-1-aminocyclohexan-1-carboxy]-D-phenylalanyl}-3-cis-aminocyclohexan-1-carboxylic-acid-N-(5-aminopentyl)-amide trifluoroacetate salt] returned a pKi of 9.2.
The compound `N[C@H]1CCCC[C@@H]1NC(=O)[C@@H]1CC[C@H](NC(=O)[C@@H](Cc2ccccc2)NC(=O)C2(NC(=O)c3ccc(-c4ccccc4)cc3)CCCC2)C1.O=C(O)C(F)(F)F` [Example 3, N^γ{N^α[N^α(biphen-4-ylcarboxy)-1-aminocyclopentan-1-carboxy]-D-phenylalanyl}-(1R,3S)-3-aminocyclopentane-1-carboxylic-acid-N-((1S,2S)-2-aminocyclohexyl)amide trifluoroacetate salt] returned a pKi of 9.6.
Regarding `O=C(NC1(C(=O)N[C@H](Cc2ccccc2)C(=O)NCC2CCN(CC3CCCCC3)CC2)CCCC1)c1cc2ccccc2s1` [Example 79, Benzo[b]thiophene-2-carboxylic acid (1-{1(R)-[(1-cyclohexylmethyl-piperidin-4 ylmethyl)-carbamoyl]-2-phenyl-ethylcarbamoyl}-cyclopentyl)-amide], the Ki was 0.0631 nM.
The compound `NC1CCCCC1NC(=O)C1CCCC(NC(=O)[C@H](Cc2ccccc2)NC(=O)C2(NC(=O)c3cc4ccccc4s3)CCCC2)C1` (stereo partly drawn) [Example 26, acid-3-cis-N^γ{N^α[N^α(benzo[b]thiophen-2-ylcarbonyl)-1-aminocyclopentane-1-carboxy]-L-phenylalanil}aminocyclohexane-1-carboxylic-N-(2-cis-aminocyclohexyl) amide] gave a Ki of 0.0501 nM.
Compound `NC1(C(=O)N2CCC(CNC(=O)[C@@H](Cc3ccccc3)NC(=O)C3(NC(=O)c4cc5ccccc5s4)CCCC3)CC2)CCCC1` [Example 63, Benzo[b]thiophene-2-carboxylic acid [1-(1(R)-{[1-(1-amino-cyclopentanecarbonyl)piperidin-4-ylmethyl]-carbamoyl}-2-phenyl-ethylcarbamoyl)-cyclopentyl]-amide] showed a Ki of 0.631 nM. Against the preceding compound, the Ki is about 13-fold higher.
Take `O=C(NC1(C(=O)N[C@H](Cc2ccccc2)C(=O)NCC2CCN(CC3COCOC3)CC2)CCCC1)c1cc2ccccc2s1` [Example 88, Benzo[b]thiophene-2-carboxylic acid (1-{1(R)-[(1-[1,3]dioxan-5-ylmethyl-piperidin-4-ylmethyl)carbamoyl]-2-phenyl-ethylcarbamoyl}-cyclopentyl)-amide TFA salt]: the Ki was 0.794 nM.
As for `C[C@](Cc1ccccc1)(NC(=O)c1cc2ccccc2s1)C(=O)N[C@H](Cc1ccccc1)C(=O)NCCCN1CCOCC1` [Example 34, N^α[N^α(benzo[b]thiophen-2-ylcarbonyl)-D-α-methylphenylalanil]-D-phenylalanine-N-[3-(morpholin-4-yl)propyl]amide], the affinity, expressed as Ki, was 1.26 nM.
On to `Cc1ccc(C[C@@H](NC(=O)C2(NC(=O)c3cc4ccccc4s3)CCCC2)C(=O)N[C@H]2CC[C@@H](C(=O)N[C@H]3CCCC[C@@H]3N(C)C)C2)cc1` [Example 9, N^γ{N^α[N^α(benzo[b]thiophen-2-ylcarbonyl)-1-aminocyclopentan-1-carboxy]-D-4-methyl-phenylalanyl}-(1R,3S)-3-aminocyclopentane-1-carboxylic-acid-N-(1S,2S)-2-dimethyl aminocyclohexyl)amide hydrochloride salt], for which the Ki is 1.58 nM.
Compound `CN1CCCN(CCCNC(=O)[C@@H](Cc2ccccc2)NC(=O)C2(NC(=O)c3cc4ccccc4s3)CCCC2)CC1` [Example 52, Benzo[b]thiophen-2-carboxylic acid, (1-{1(R)-[3-(4-methyl-[1,4]diazepan-1-yl)-propylcarbamoyl]-2-phenylethylcarbamoyl}-cyclopentyl)-amide TFA salt] showed a Ki of 2 nM.
The same measure, in the same setting: with `NC1CCCCC1NC(=O)C1CCC(NC(=O)C(Cc2ccccc2)NC(=O)C2(NC(=O)c3cc4ccccc4s3)CCCC2)C1` (single isomer, unassigned) [Example 2] the figure was 0.158 nM; with `O=C(NC1(C(=O)N[C@H](Cc2ccccc2)C(=O)NCC2CCN(CC3CCOCC3)CC2)CCCC1)c1cc2cccc(I)c2s1` [Example 132, 7-Iodo-benzo[b]thiophene-2-carboxylic acid [1-(2-phenyl-1R-{[1-(tetrahydro-pyran 4-ylmethyl)-piperidin-4-ylmethyl]-carbamoyl}-ethylcarbamoyl)-cyclopentyl]-amide], 0.0316 nM; with `NC1CCCCC1NC(=O)C1CCCC(NC(=O)C(Cc2ccccc2)NC(=O)C2(NC(=O)c3cc4ccccc4s3)CCCCC2)C1` (single isomer, unassigned) [Example 21], 0.251 nM.
Compound `O=C(NC1(C(=O)N[C@H](Cc2ccccc2)C(=O)NCC2CCN(CC3CCOCC3)CC2)CCCC1)c1ccc2cc(Br)ccc2c1` [Example 72, 6-Bromo-naphthalene-2-carboxylic acid [1-(2-phenyl-1(R)-{[-(tetrahydro-pyran-4-ylmethyl)-piperidin-4-ylmethyl]-carbamoyl}-ethylcarbamoyl)-cyclopentyl]-amide] registered a pKi of 10.0.
Same read-out and setting: to `NC1CCCCC1NC(=O)[C@@H]1C[C@@H](NC(=O)[C@@H](Cc2ccccc2)NC(=O)C2(NC(=O)c3cc4ccccc4s3)CCCC2)CN1` (relative stereo) [Example 36] belongs 10.6.
Take “N^γ{N^α[N^α(benzo[b]thiophen-2-ylcarbonyl)-1-aminocyclopentan-1-carboxy]-D-phenylalanyl}-(1R,3S)-3-aminocyclopentane-1-carboxylic-acid-N-((1S,2S)2-dimethylaminocyclohexyl) amide hydrochloride salt [Example 8]”: the pKi turned out to be 9.6.
As for `NC1CCCCC1NC(=O)C1CCC(NC(=O)C(Cc2ccccc2)NC(=O)C2(NC(=O)c3cc4ccccc4s3)CCCCC2)C1` (single isomer, unassigned) [Example 25], the Ki was 0.251 nM. In other words, the sub-nanomolar range.
Compound `O=C(NC1(C(=O)N[C@H](Cc2ccccc2)C(=O)NCC2CN(CC3CCOCC3)C2)CCCC1)c1cc2ccccc2s1` [Example 152, Benzo[b]thiophene-2-carboxylic acid [1-(2-phenyl-1(R)-{[1-(tetrahydro-pyran-4-ylmethyl)-azetidin-3-ylmethyl]-carbamoyl}-ethylcarbamoyl)-cyclopentyl]-amide] gave a Ki of 0.126 nM.
For `N[C@@H]1CCCC[C@@H]1NC(=O)C1CCCC(NC(=O)[C@@H](Cc2ccccc2)NC(=O)C2(NC(=O)c3cc4ccccc4s3)CCCC2)C1` (stereo partly drawn) [Example 30, acid-3-cis-N^γ{N^α[N^α(benzo[b]thiophen-2-ylcarbonyl)-1-aminocyclopentane-1-carboxy]-D-phenylalanil}aminocyclohexane-1-carboxylic-N-[(1S,2R)-aminocyclohexyl]amide], the Ki was 0.1 nM. This Ki and that of the compound before are within 1.5-fold of each other.
Compound `COc1ccc2cc(C(=O)NC3(C(=O)N[C@H](Cc4ccccc4)C(=O)NCC4CCN(CC5CCOCC5)CC4)CCCC3)ccc2c1` [Example 118, 6-Methoxy-naphthalene-2-carboxylic acid [1-(2-phenyl-1R-{[1-(tetrahydro-pyran-4-ylmethyl)-piperidin-4-ylmethyl]-carbamoyl}-ethylcarbamoyl)-cyclopentyl]-amide] had a Ki of 0.316 nM. This Ki is about 3.2-fold higher than that of the compound before.
Still for that read-out and setting: with `Cc1ccc(C=CC(=O)NC2(C(=O)NC(Cc3ccc(C)cc3)C(=O)NC3CCC(C(=O)NC4CCCCC4N)C3)CCCC2)cc1` [Example 18, N^γ{N^α[N^α(4-(methyl)cynnamoyl)-1-aminocyclopentan-1-carboxy]-R-3[4-methyl)phenyl]alanyl}-(1R,3S)-3-aminocyclopentane-1-carboxylic-acid-N-((1S,2S)-2-aminocyclohexyl)amide hydrochloride salt] the figure was 0.794 nM; with `CN(C)[C@H]1CCCC[C@@H]1NC(=O)[C@@H]1CC[C@H](NC(=O)[C@@H](Cc2ccccc2)NC(=O)C2(NC(=O)c3cc4ccccc4o3)CCCC2)C1` [Example 11, N^γ{N^α[N^α(benzofuran-2-ylcarboxy)-1-aminocyclopentan-1-carboxy]-D-phenylalanyl}-(1R,3S)-3-aminocyclopentane-1-carboxylic-acid-N-((1S,2S)-2-dimethylaminocyclohexyl)amide hydrochloride salt], 2 nM.
Compound `O=C(NC1(C(=O)N[C@H](Cc2ccccc2)C(=O)NCC2CCN(CC3CCOCC3)CC2)CCCC1)c1cc2ccc(Cl)cc2o1` [Example 120] gave a Ki of 0.316 nM.
The compound `COC1CCN(CCCNC(=O)[C@@H](Cc2ccccc2)NC(=O)C2(NC(=O)c3cc4ccccc4s3)CCCC2)CC1` [Example 53, Benzo[b]thiophene-2-carboxylic acid (1-{1(R)-[3-(4-methoxy-piperidin-1-yl)-propylcarbamoyl]-2-phenyl-ethylcarbamoyl}-cyclopentyl)-amide TFA salt] had a Ki of 2.51 nM.

The term Ki denotes a dissociation constant, usually derived from enzyme kinetics or from competition with a known ligand. A low value points to a stronger hold on the target. The term pKi denotes the Ki on a negative log10 scale, so that one unit is a factor of ten. Read a low pKi as a large Ki.
